How the values were obtained:
[1] = Determination of the microsomal half-life / microsomal clearance, rat liver microsomes; format: in vitro ADME; conditions: 0.5 μM test substance, 0.25 mg of microsomal protein/ml, pH 7.4, 37° C.
Description: (§1) b) Determination of the Microsomal Half-Life:
(§2) The metabolic stability of the compounds of the invention was determined in the following assay.
(§3) The test substances were incubated in a concentration of 0.5 μM as follows:
(§4) 0.5 μM test substance are preincubated together with liver microsomes from different species (from rat, human or other species) (0.25 mg of microsomal protein/ml) in 0.05 M potassium phosphate buffer of pH 7.4 in microtiter plates at 37° C. for 5 min. The reaction is started by adding NADPH (1 mg/mL). After 0, 5, 10, 15, 20 and 30 min, 50 μl aliquots are removed, and the reaction is immediately stopped and cooled with the same volume of acetonitrile. The samples are frozen until analyzed. The remaining concentration of undegraded test substance is determined by MSMS. The half-life (T½) is determined from the gradient of the signal of test substance/unit time plot, it being possible to calculate the half-life of the test substance, assuming first order kinetics, from the decrease in the concentration of the compound with time. The microsomal clearance (mCl) is calculated from mCl=ln 2/T½/(content of microsomal protein in mg/ml)×1000 [ml/min/mg]

[2] = Determination of the microsomal half-life / microsomal clearance, human liver microsomes; format: in vitro ADME; conditions: 0.5 μM test substance, 0.25 mg of microsomal protein/ml, pH 7.4, 37° C.
Description: as §1, §2, §3, §4

[3] = target: PDE10A (Homo sapiens (Human), UniProt Q9Y233); test: Measurement of PDE activity (recombinant PDE, cAMP HTRF); format: biochemical; conditions: 20 nM cyclic nucleotide substrate, 60 minutes at 29 C
Sequence of PDE10A (Q9Y233 whole entry, species assumed): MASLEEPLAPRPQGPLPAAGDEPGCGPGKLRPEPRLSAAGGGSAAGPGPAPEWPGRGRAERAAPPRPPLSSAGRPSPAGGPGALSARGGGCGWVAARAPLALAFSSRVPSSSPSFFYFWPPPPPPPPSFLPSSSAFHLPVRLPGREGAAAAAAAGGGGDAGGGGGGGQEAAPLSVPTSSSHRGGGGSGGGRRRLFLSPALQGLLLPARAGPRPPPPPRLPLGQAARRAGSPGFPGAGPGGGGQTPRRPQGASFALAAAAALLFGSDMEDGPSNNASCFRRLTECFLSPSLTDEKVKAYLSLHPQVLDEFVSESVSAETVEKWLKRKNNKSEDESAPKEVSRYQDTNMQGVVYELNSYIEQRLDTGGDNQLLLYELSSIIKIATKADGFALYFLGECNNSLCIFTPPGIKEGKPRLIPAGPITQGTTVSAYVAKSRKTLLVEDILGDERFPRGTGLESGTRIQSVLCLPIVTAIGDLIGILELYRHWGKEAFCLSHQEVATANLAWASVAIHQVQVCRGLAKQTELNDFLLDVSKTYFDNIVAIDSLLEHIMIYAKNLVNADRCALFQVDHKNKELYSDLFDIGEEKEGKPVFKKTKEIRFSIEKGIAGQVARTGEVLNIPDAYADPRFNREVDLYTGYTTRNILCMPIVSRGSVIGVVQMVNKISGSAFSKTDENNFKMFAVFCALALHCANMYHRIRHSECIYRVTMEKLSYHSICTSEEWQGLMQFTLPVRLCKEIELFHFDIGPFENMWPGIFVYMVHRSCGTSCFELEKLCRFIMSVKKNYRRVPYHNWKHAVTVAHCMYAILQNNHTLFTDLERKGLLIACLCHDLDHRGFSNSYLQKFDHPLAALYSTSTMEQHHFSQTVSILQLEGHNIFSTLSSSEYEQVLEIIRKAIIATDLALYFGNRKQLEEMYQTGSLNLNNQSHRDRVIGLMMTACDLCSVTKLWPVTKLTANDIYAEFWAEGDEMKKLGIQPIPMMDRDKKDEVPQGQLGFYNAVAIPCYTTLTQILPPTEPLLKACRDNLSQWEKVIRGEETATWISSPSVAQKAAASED
Procedure, shortened: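 Recombinant human PDE10A in 20 mM Tris-HCl pH 7.5, 10 mM MgCl2, 0.1% BSA with 20 nM cyclic nucleotide substrate; reaction 60 min at 29 C after compound preincubation with enzyme. Residual cAMP detected by HTRF (cAMP-d2/anti-cAMP cryptate); IC50 from inhibitor concentration versus PDE activity.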

Rat mCl [1]	Human mCl [2]	IC50 [3] [nM]	Structure (SMILES)
++ (<100 μl min^−1 mg^−1)	++ (<100 μl min^−1 mg^−1)	100 to 200	CCn1cc(C(=O)Nc2cccc(OC)c2)c2cc(OC)c(OC)cc2c1=O [Example 147, 2-Ethyl-6,7-dimethoxy-N-(3-methoxyphenyl)-1-oxo-1,2-dihydroisoquinoline-4-carboxamide]
++ (<100 μl min^−1 mg^−1)	++ (<100 μl min^−1 mg^−1)	100 to 200	CCn1cc(C(=O)Nc2ccc(C)cc2)c2cc(OC)c(OC)cc2c1=O [Example 158, 2-Ethyl-6,7-dimethoxy-1-oxo-N-p-tolyl-1,2-dihydroisoquinoline-4-carboxamide]
++ (<100 μl min^−1 mg^−1)	++ (<100 μl min^−1 mg^−1)	< 100	CCn1cc(C(=O)NCc2ccc(C)cc2)c2cc(OC)c(OC)cc2c1=O [Example 161, 2-Ethyl-6,7-dimethoxy-N-(4-methylbenzyl)-1-oxo-1,2-dihydroisoquinoline-4-carboxamide]
++ (<100 μl min^−1 mg^−1)	++ (<100 μl min^−1 mg^−1)	200 to 500	CCn1cc(C(=O)NC2CCc3ccc(F)cc32)c2cc(OC)c(OC)cc2c1=O (stereo not drawn) [Example 171, 2-Ethyl-N-(6-fluoro-2,3-dihydro-1H-inden-1-yl)-6,7-dimethoxy-1-oxo-1,2-dihydroisoquinoline-4-carboxamide]
++ (<100 μl min^−1 mg^−1)	++ (<100 μl min^−1 mg^−1)	100 to 200	CCn1cc(C(=O)NC2CCc3sccc32)c2cc(OC)c(OC)cc2c1=O (stereo not drawn) [Example 172, N-(5,6-Dihydro-4H-cyclopenta[b]thiophen-4-yl)-2-ethyl-6,7-dimethoxy-1-oxo-1,2-dihydroisoquinoline-4-carboxamide]
++ (<100 μl min^−1 mg^−1)	++ (<100 μl min^−1 mg^−1)	100 to 200	CCC(CC)n1cc(C(=O)NC2CCc3ncccc32)c2cc(OC)c(OC)cc2c1=O (stereo not drawn) [Example 186, 2-(1-Ethyl-propyl)-6,7-dimethoxy-1-oxo-1,2-dihydro-isoquinoline-4-carboxylic acid (6,7-dihydro-5H-[1]pyrindin-5-yl)-amide]
+ (100-220 μl min^−1 mg^−1)	∘ (>220 μl min^−1 mg^−1)	< 100	CCC(CC)n1cc(C(=O)N[C@H]2CCc3ccccc32)c2cc(OC)c(OC)cc2c1=O [Example 192, 2-(1-Ethyl-propyl)-6,7-dimethoxy-1-oxo-1,2-dihydro-isoquinoline-4-carboxylic acid (S)-indan-1-ylamide]
+ (100-220 μl min^−1 mg^−1)	+ (100-220 μl min^−1 mg^−1)	100 to 200	CCC(CC)n1cc(C(=O)NC2CC(=O)c3sccc32)c2cc(OC)c(OC)cc2c1=O (stereo not drawn) [Example 195, 2-(1-Ethyl-propyl)-6,7-dimethoxy-1-oxo-1,2-dihydro-isoquinoline-4-carboxylic acid (6-oxo-5,6-dihydro-4H-cyclopenta[b]thiophen-4-yl)-amide]
+ (100-220 μl min^−1 mg^−1)	∘ (>220 μl min^−1 mg^−1)	100 to 200	CCC(C)n1cc(C(=O)NC2CCc3ccccc32)c2cc(OC)c(OC)cc2c1=O (stereo not drawn) [Example 197, 2-sec-Butyl-6,7-dimethoxy-1-oxo-1,2-dihydro-isoquinoline-4-carboxylic acid indan-1-ylamide]
++ (<100 μl min^−1 mg^−1)	+ (100-220 μl min^−1 mg^−1)	200 to 500	COc1cc2c(C(=O)NC3CCc4ccccc43)cn(C(C)C)c(=O)c2cc1OC (stereo not drawn) [Example 198, 2-Isopropyl-6,7-dimethoxy-1-oxo-1,2-dihydro-isoquinoline-4-carboxylic acid indan-1-ylamide]
++ (<100 μl min^−1 mg^−1)	++ (<100 μl min^−1 mg^−1)	200 to 500	CCC(CC)n1cc(C(=O)NCc2nncs2)c2cc(OC)c(OC)cc2c1=O [Example 201, 2-(1-Ethyl-propyl)-6,7-dimethoxy-1-oxo-1,2-dihydro-isoquinoline-4-carboxylic acid ([1,3,4]thiadiazol-2-ylmethyl)-amide]
+ (100-220 μl min^−1 mg^−1)	∘ (>220 μl min^−1 mg^−1)	< 100	CCC(CC)n1cc(C(=O)NCc2ccccc2S(=O)(=O)N2CCOCC2)c2cc(OC)c(OC)cc2c1=O [Example 202, 2-(1-Ethyl-propyl)-6,7-dimethoxy-1-oxo-1,2-dihydro-isoquinoline-4-carboxylic acid 2-(morpholine-4-sulfonyl)-benzylamide]
+ (100-220 μl min^−1 mg^−1)	+ (100-220 μl min^−1 mg^−1)	< 100	CCC(CC)n1cc(C(=O)NCc2ccccc2S(=O)(=O)N2CCN(C)CC2)c2cc(OC)c(OC)cc2c1=O [Example 219, 2-(1-Ethyl-propyl)-6,7-dimethoxy-1-oxo-1,2-dihydro-isoquinoline-4-carboxylic acid 2-(4-methyl-piperazine-1-sulfonyl)-benzylamide]
++ (<100 μl min^−1 mg^−1)	++ (<100 μl min^−1 mg^−1)	100 to 200	CCC(CC)n1cc(C(=O)NCc2nccs2)c2cc(OC)c(OC)cc2c1=O [Example 228, 2-(1-Ethyl-propyl)-6,7-dimethoxy-1-oxo-1,2-dihydro-isoquinoline-4-carboxylic acid (thiazol-2-ylmethyl)-amide]
++ (<100 μl min^−1 mg^−1)	+ (100-220 μl min^−1 mg^−1)	100 to 200	CCC(CC)n1cc(C(=O)NCc2cccnc2)c2cc(OC)c(OC)cc2c1=O [Example 236, 6,7-Dimethoxy-1-oxo-2-(pentan-3-yl)-N-(pyridin-3-ylmethyl)-1,2-dihydroisoquinoline-4-carboxamide]
+ (100-220 μl min^−1 mg^−1)	++ (<100 μl min^−1 mg^−1)	100 to 200	CCC(CC)n1cc(C(=O)NCc2c(C)noc2C)c2cc(OC)c(OC)cc2c1=O [Example 238, N-((3,5-Dimethylisoxazol-4-yl)methyl)-6,7-dimethoxy-1-oxo-2-(pentan-3-yl)-1,2-dihydroisoquinoline-4-carboxamide]
+ (100-220 μl min^−1 mg^−1)	+ (100-220 μl min^−1 mg^−1)	100 to 200	CCC(CC)n1cc(C(=O)NCc2ncc(C)s2)c2cc(OC)c(OC)cc2c1=O [Example 239, 6,7-Dimethoxy-N-((5-methylthiazol-2-yl)methyl)-1-oxo-2-(pentan-3-yl)-1,2-dihydroisoquinoline-4-carboxamide]
+ (100-220 μl min^−1 mg^−1)	++ (<100 μl min^−1 mg^−1)	100 to 200	CCC(CC)n1cc(C(=O)NCc2cc(C)no2)c2cc(OC)c(OC)cc2c1=O [Example 241, 6,7-Dimethoxy-N-((3-methylisoxazol-5-yl)methyl)-1-oxo-2-(pentan-3-yl)-1,2-dihydroisoquinoline-4-carboxamide]
++ (<100 μl min^−1 mg^−1)	++ (<100 μl min^−1 mg^−1)	200 to 500	CCC(CC)n1cc(C(=O)NCc2cc(C)on2)c2cc(OC)c(OC)cc2c1=O [Example 244, 6,7-Dimethoxy-N-((5-methylisoxazol-3-yl)methyl)-1-oxo-2-(pentan-3-yl)-1,2-dihydroisoquinoline-4-carboxamide]
+ (100-220 μl min^−1 mg^−1)	∘ (>220 μl min^−1 mg^−1)	100 to 200	CCC(CC)n1cc(C(=O)N[C@@H](C)c2ccc(F)cc2)c2cc(OC)c(OC)cc2c1=O [Example 246, (S)—N-(1-(4-fluorophenyl)ethyl)-6,7-dimethoxy-1-oxo-2-(pentan-3-yl)-1,2-dihydroisoquinoline-4-carboxamide]
++ (<100 μl min^−1 mg^−1)	+ (100-220 μl min^−1 mg^−1)	100 to 200	CCC(CC)n1cc(C(=O)NCc2nc(C)cs2)c2cc(OC)c(OC)cc2c1=O [Example 247, 6,7-Dimethoxy-N-((4-methylthiazol-2-yl)methyl)-1-oxo-2-(pentan-3-yl)-1,2-dihydroisoquinoline-4-carboxamide]
++ (<100 μl min^−1 mg^−1)	+ (100-220 μl min^−1 mg^−1)	100 to 200	CCC(CC)n1cc(C(=O)NCc2csc(C)n2)c2cc(OC)c(OC)cc2c1=O [Example 248, 6,7-Dimethoxy-N-((2-methylthiazol-4-yl)methyl)-1-oxo-2-(pentan-3-yl)-1,2-dihydroisoquinoline-4-carboxamide]

Structure (SMILES)	Rat mCl [1]	Human mCl [2]	IC50 [3] [nM]
CCC(CC)n1cc(C(=O)NCC2CCCCC2)c2cc(OC)c(OC)cc2c1=O [Example 190, 2-(1-Ethyl-propyl)-6,7-dimethoxy-1-oxo-1,2-dihydro-isoquinoline-4-carboxylic acid cyclohexylmethyl-amide]	+ (100-220 μl min^−1 mg^−1)	∘ (>220 μl min^−1 mg^−1)	100 to 200

— patent US9856220B2 (AbbVie Deutschland GmbH & Co. KG, priority 2011, dated 2018)
